Results as given in publication PMC11651181, “Discovery of 6α-Thiazolylcarboxamidonaltrexamine Derivative (NTZ) as a Potent and Central Nervous System Penetrant Opioid Receptor Modulator with Drug-like Properties for Potential Treatment of Opioid Use Disorder” (ACS Pharmacology & Translational Science, 2024).
“Also recorded” adds a separate entry of the source. Where a name gives a salt, the structure may show the parent alone.

Assays:
MOR = molecular target: T1, MOR (Mus musculus, UniProt P42866); assay: MOR calcium flux assay in Gαqi5-transfected mMOR-CHO cells; format: cell-based
T1 construct: expressed in transfected cells; host or cells: CHO (MOR-CHO), membrane preparation
Method: Ligands were initially tested at various concentrations (0.3 nM to 3 μM) for potential agonist activity in MOR-CHO cells. These cells were transfected with Gqi5 pcDNA1 using Lipofectamine 2000 (Invitrogen) following the manufacturer’s protocol. […] Peak values were obtained using SoftMaxPro software (Molecular Devices), and IC50 values were calculated by generating nonlinear regression curves using GraphPad Prism. Each dose was tested in triplicates, and the experiment was repeated at least four times to calculate standard errors.

[1] = In vitro metabolic stability in Sprague-Dawley rat liver microsomes; format: in vitro ADME; conditions: 1.0E-07 M; for % Compound Remaining, mean: rat liver microsomes
Method: (§1) The ADMET assessment including the hERG inhibitory activity, plasma protein binding, in vitro metabolic stability profile, CYP inhibitory effect and mutagenic evaluation were conducted by Eurofins Panlabs, Inc.[21],[61],[69]−[71]

hERG potassium channel = hERG potassium channel (Homo sapiens, UniProt Q12809); assay: hERG inhibitory activity assay (automated patch-clamp, CHO-K1 cells)
Method: On the day of the assay, a dish of cells was removed from the incubator, washed twice with extracellular solution at room temperature, and applied to automated patch-clamp sites. After achieving a whole-cell configuration, the membrane potential was held at −80 mV. A 50 ms pulse to −40 mV was applied to measure leak current, which was subtracted from the tail current in real time. […] This sequence was repeated every 5 s to track the current amplitude. The assay was performed at room temperature, with extracellular solution applied first to stabilize the cell for 5 min. […] Peak tail currents were recorded and plotted against sweep number. The control current amplitude was calculated by averaging five peak tail current measurements at steady state before compound application. The remaining current amplitude after compound inhibition was determined by averaging four to five peak tail current measurements at steady state after compound application.
Percent inhibition was calculated according to the following equation:

typical tester strains = assay: Bacterial reverse mutation assay; conditions: up to 100 μM
Method: as §1

μ opioid receptor (MOR) = molecular target: T2, μ opioid receptor (MOR) (Mus musculus, UniProt P42866); assay: Competitive radioligand binding assay, MOR
T2 construct: expressed in transfected cells; host or cells: CHO (mMOR-CHO), membrane preparation
Method: The competition binding assay was performed using monoclonal mouse opioid receptors expressed in CHO cell lines (monoclonal human δ opioid receptor was used for the DOR assay).
The bound radioligand was separated using a Brandel harvester. Specific binding to the MOR, KOR, and DOR was calculated by subtracting the binding observed in the presence of 5 μM naltrexone, U50488, and SNC80, respectively, from the binding in their absence. Relative affinity values (IC50) were determined by fitting displacement binding inhibition data to a nonlinear regression model using GraphPad Prism 8.0 (GraphPad Software, San Diego, CA). The % inhibition was calculated using the formula: % inhibition = 100% - [(binding with the tested compound - nonspecific binding)/specific binding] × 100%. The IC50 values were converted to Ki values using the Cheng-Prusoff equation: Ki = IC50/ [1 + ([L*]/KD)], where [L*] is the concentration of the radioligand and KD is the KD of the radioligand.[68]

[2] = Sprague-Dawley rat liver microsomes
[3] = human, CHO-K1 cells stably expressing hERG

T1 sequence (P42866 whole entry): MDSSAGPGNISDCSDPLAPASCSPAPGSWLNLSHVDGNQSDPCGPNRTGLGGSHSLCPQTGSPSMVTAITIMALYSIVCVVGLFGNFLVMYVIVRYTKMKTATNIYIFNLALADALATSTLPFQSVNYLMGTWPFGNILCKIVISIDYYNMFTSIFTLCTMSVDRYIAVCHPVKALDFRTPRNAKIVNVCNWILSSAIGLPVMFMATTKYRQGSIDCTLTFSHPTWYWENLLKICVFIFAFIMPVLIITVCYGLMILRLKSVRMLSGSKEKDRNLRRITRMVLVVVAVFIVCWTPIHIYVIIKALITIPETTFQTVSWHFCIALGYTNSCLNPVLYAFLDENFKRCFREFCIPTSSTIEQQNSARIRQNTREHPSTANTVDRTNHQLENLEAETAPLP
Sequence of hERG potassium channel (Q12809 whole entry): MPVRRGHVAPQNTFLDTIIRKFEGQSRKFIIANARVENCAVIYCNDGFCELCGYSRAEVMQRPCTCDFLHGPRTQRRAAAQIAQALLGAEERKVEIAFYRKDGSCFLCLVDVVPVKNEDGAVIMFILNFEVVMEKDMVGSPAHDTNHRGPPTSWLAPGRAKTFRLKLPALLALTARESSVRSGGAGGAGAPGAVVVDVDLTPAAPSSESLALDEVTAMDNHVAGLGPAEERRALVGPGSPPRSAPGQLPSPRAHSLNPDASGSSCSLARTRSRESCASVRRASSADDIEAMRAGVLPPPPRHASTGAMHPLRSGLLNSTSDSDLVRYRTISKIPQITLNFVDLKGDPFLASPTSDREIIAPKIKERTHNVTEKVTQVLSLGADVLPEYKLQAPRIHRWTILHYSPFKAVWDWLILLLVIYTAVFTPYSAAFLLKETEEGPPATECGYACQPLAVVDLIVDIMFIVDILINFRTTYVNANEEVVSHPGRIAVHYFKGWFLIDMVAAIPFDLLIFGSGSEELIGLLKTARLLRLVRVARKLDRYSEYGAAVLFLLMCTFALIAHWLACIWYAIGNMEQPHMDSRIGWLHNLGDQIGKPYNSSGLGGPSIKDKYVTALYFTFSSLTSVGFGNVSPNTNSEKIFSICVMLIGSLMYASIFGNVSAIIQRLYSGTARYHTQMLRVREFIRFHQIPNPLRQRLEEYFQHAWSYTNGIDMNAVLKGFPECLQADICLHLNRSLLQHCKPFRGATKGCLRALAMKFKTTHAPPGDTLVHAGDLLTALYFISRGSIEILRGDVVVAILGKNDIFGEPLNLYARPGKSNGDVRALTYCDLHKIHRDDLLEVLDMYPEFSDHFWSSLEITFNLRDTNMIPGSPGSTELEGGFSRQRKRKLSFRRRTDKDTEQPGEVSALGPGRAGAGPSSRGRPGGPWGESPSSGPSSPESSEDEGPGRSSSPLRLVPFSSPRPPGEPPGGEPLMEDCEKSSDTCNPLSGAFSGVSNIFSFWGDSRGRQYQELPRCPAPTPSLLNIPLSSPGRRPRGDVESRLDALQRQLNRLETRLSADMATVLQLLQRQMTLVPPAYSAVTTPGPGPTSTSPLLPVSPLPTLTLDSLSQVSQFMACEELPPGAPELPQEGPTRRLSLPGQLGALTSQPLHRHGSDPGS
T2 sequence (P42866 whole entry): as the sequence (P42866 whole entry) above

In the case of `O=C(N[C@H]1CC[C@@]2(O)[C@H]3Cc4ccc(O)c5c4[C@@]2(CCN3CC2CC2)[C@H]1O5)c1nccs1` [Compound 6, 17-Cyclopropylmethyl-3,14β-dihydroxy-4,5α-epoxy-6α-(2′-thiazolylcarboxamido)-morphinan hydrochloride], the IC50 (MOR) is reported as 5.64 ± 0.24 nM, the “Agonistic activity in increasing intracellular calcium, in words” value (MOR; compared to full MOR agonist DAMGO) is reported as “no apparent agonism; also recorded: none of them showed any significant agonistic activity” and the half-life at 100 nM [1, 2] is reported as greater than 1 h. For the same compound, the microsomal CLint at 100 nM [1, 2] was less than 38.5 µL/min/mg, the “% Compound Remaining, mean” value ([1]; 15 min) was 106% and the “% Compound Remaining, mean” value ([1]; 30 min) was 115%. For the same compound, the “% Compound Remaining, mean” value ([1]; 45 min) was 103%, the “% Compound Remaining, mean” value ([1]; 60 min) was 105% and the IC50 (hERG potassium channel) was 7400 nM. It also gave an inhibition at 10 nM (hERG potassium channel; [3]) of 2.6%, an inhibition at 100 nM (hERG potassium channel; [3]) of 6% and an inhibition at 1 µM (hERG potassium channel; [3]) of 18.5%. The inhibition at 10 µM (hERG potassium channel; [3]) was 55.5%, the inhibition at 0.0001 M (hERG potassium channel; [3]) was 86.8% and the “Mutagenic potential, in words” value (typical tester strains) was “no mutagenic potential”. It also gave a Ki (μ opioid receptor (MOR)) of 0.25 ± 0.03 nM.
